The NIST ThermoML archive (doi:10.1016/j.jct.2013.09.006)
Numbers after ± are expanded uncertainties.

Tests used:
[1] = 101.33 kPa, Liquid; for viscosity: Capillary tube (Ostwald / Ubbelohde) method; for mass density: Vibrating tube method
[2] = refractive index (Na D-line) (dimensionless); conditions: 101.33 kPa, Liquid, Standard Abbe refractometry

CCO [ethanol]
Conditions	mass density, 298.15 K [kg/m3]	mass density, 303.15 K [kg/m3]	mass density, 308.15 K [kg/m3]	refractive index, 298.15 K	refractive index, 303.15 K	refractive index, 308.15 K	viscosity, 298.15 K [mPa·s]	viscosity, 303.15 K [mPa·s]	viscosity, 308.15 K [mPa·s]
[1]	785.9 ± 1.8	780.2 ± 1.8	776.5 ± 1.8	–	–	–	1.09 ± 0.02	0.95 ± 0.02	0.87 ± 0.02
[2]	–	–	–	1.3593 ± 0.0014	1.3573 ± 0.0014	1.3556 ± 0.0014	–	–	–
